Laboratory results as given in US20060229255A1, “Identification of n-alkylglycine trimers for induction of apoptosis” (priority 2003, published 2006).

Experiments:
Cdk4/CycD1 = target: T1, Cdk4/CycD1 (Homo sapiens, UniProt P11802); assay: 33PanQinase Cdk4/CycD1 kinase assay (pRb phosphorylation); type: biochemical; conditions: 3 μM or 30 μM
T1 construct: GST; host or cells: Sf9 insect cells, baculovirus
Description: ^33Pan Qinase assays containing cycD, Cdk4 and pRb protein in the presence of 3 μM or 30 μM, N10-13-10C or N13-13-10C, were performed.
To assay Cdk4/CycD1 kinase activity, Cdk4 was expressed in Sf9 insect cells as recombinant GST-fusion protein by means of baculovirus expression system. Kinase assay was performed in 96-well FlashPlates (NEN) in a 50 μl reaction volume using the ^33PanQinase activity assay (ProQinase) and Beckman Coulter/Sagian robotic system. The reaction cocktail was 20 μl of assay buffer (50 mM Hepes-NaOH pH 7.5, 3 mM MgCl2, 3 mM MnCl2, 3 μM Na-orthovanadate, 1 mM DTT, 0.1 μM […]); 1 μg pRb protein; 100 ng enzyme; and 5 μl of test compound in 10% DMSO. The reaction cocktail was incubated at 30° C. for 80 min. The reaction was stopped with 50 μl of 0.2% (v/v) H3PO4, plates were aspirated and washed two times with 0.9% (w/v) NaCl. Incorporation of ^33P was determined with a microplate scintillation counter (Microbeta, Wallac).

[1] = test system: HT29 human colon adenocarcinoma cells; assay: Cellular proliferation assay (MTT); type: cell-based; conditions: for IC50: HT29, MTT assay after 72 h, read-out: IC50 proliferation inhibition; for Anti-proliferative effect in combination with serial dilutions of Taxol versus Taxol alone: HT29, compound at its IC50, 72 h; for Effect of Taxol on the compound's proliferation inhibition: HT29, with low dose of Taxol (11 nM), 72 h
Description: For screening of the peptoid library containing 10.648 compounds, controlled mixtures of trimers of N-alkylglycine oligomer molecules (peptoid) have been used and constructed under […] positional scanning formats. Chemical diversity was introduced through the substitution of position R1, R2 and R3 by 22 different primary amines. 66 controlled mixtures divided into three different subgroups depending on the R1, R2, R3 defined position. The library was screened on a cellular proliferation assay with HT29 human colon adenocarcinoma cells. The compounds were tested either alone or together with a low dose of Taxol (11 nM). After 72 h in culture, cellular viability was measured with the MTT assay.
Cellular Assays. Combinatorial libraries were screened on a cellular proliferation assay with HT29 human colon adenocarcinoma cells. The compounds were tested either alone or together with low doses of Taxol (nM). After 3 days in culture, cellular viability was measured with an MTT assay (3-4,5-Dimethyl-2-thiazolyl-2,5-diphenyl-2H-tetrazolium bromide). MTT was added at a final concentration of 1 mg/ml in the cell cultures, and after 4 h incubation at 37° C. cell lysis was performed with 15% SDS/DMF (v/v). Spectrophotometric measurement of MTT-formazan at 570 nm and a reference filter at 630 nm allows quantitation of cellular viability. Proliferation inhibition due to the compounds alone was compared to inhibition observed in Taxol plus compound treated cultures.
FIG. 1. Compounds N10-13-10C, N13-13-10C, N4-13-10C and N5-13-10C inhibit HT29 proliferation. Taxol interferes the effect of N10-13-10C and N13-13-10C. (A, B) HT29 cells were grown with peptoid at several concentrations with or without Taxol (11 nM). MTT assay was performed after 72 h of treatment. Proliferation inhibition is shown for N4-13-10C and N13-13-10C (A.), N5-13-10C and N10-13-10C (B.) compared to proliferation of control cells. IC50 value is specified for each peptoid. N10-13-10C and N13-13-10C were purified peptoids by HPLC, corresponding to the major and active fraction. N4-13-10C and N5-13-10C peptoids were not purified by HPLC. […] Proliferation was evaluated by MTT assay after 72 h of treatment. An arbitrary value of 100% was assigned to the densiometric rate of untreated cultures and all other values are depicted relative to that reference. The values are means of six (n=6) replicates.

T1 sequence (P11802 whole entry): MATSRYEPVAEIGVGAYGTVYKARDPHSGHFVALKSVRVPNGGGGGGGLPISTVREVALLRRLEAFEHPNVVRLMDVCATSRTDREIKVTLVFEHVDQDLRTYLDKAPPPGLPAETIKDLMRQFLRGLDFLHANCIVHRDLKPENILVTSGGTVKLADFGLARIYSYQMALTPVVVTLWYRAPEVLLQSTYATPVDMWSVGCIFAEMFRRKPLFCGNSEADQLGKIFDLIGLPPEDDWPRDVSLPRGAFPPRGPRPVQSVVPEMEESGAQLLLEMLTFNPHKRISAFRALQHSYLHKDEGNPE
T1 sequence (P24385 whole entry partner): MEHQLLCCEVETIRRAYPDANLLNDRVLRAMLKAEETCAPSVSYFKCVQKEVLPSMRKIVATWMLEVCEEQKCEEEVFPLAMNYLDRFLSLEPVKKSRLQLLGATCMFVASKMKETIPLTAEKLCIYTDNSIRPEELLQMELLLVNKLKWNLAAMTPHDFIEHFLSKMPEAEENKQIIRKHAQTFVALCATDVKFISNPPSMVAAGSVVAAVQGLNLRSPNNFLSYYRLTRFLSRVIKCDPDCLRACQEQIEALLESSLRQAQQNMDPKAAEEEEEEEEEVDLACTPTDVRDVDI

## COc1ccc(CCN(CC(=O)N(CCc2ccccc2)CC(N)=O)C(=O)CNCCc2ccccc2)cc1 [N10-13-10C]
Cdk4/CycD1
  Inhibition of pRb phosphorylation by cycD/Cdk4: No inhibition
[1]
  IC50: 40 µM
  Anti-proliferative effect in combination with serial dilutions of Taxol versus Taxol alone: potentated anti-proliferative effect
  Effect of Taxol on the compound's proliferation inhibition: Taxol prevented the compound's effect

## COc1ccc(CCNCC(=O)N(CCc2ccc(OC)cc2)CC(=O)N(CCc2ccccc2)CC(N)=O)cc1 [N13-13-10C]
Cdk4/CycD1
  Inhibition of pRb phosphorylation by cycD/Cdk4: No inhibition
[1]
  IC50: 35 µM
  Anti-proliferative effect in combination with serial dilutions of Taxol versus Taxol alone: potentated anti-proliferative effect
  Effect of Taxol on the compound's proliferation inhibition: Taxol prevented the compound's effect
